The text below walks through data of PMC9221509, “Discovery of a Novel Antimicrobial Peptide, Temporin-PKE, from the Skin Secretion of Pelophylax kl. esculentus, and Evaluation of Its Structure-Activity Relationships” (Biomolecules, 2022).

In assay [1] the test system is P. aeruginosa (ATCC CRM 9027) biofilm. In kind it is cell-based, Pseudomonas aeruginosa. As to conditions: ATCC CRM 9027, 24 h. The procedure:
(§1) The anti-biofilm activities of the peptides against S. aureus (ATCC 6538), MRSA (NCTC 12493), E. faecalis (NCTC 12697), E. coli (ATCC CRM 8739), K. pneumoniae (ATCC 43816), and P. aeruginosa (ATCC CRM 9027), were evaluated. For the MBIC assay, 99 µL of bacterial suspension (5 × 10^5 CFU/mL) was mixed with 1 µL of serial dilutions (from 100 µM to 51,200 µM) of temporin-PKE and its analogues in a 96-well plate, and the plate was incubated in a moist shaking incubator at a speed of 200 rpm at 37 °C for 24 h. For the MBEC assay, 100 µL of bacterial suspension (5 × 10^5 CFU/mL) in each well was seeded in a new 96-well plate, and the plate was put into the same shaking incubator for 24 h incubation to allow biofilm formation on the well. After biofilm formation, the biofilm in the plate was washed with PBS twice. The PBS was aspirated between washes to remove planktonic bacterial cells. The washed biofilm in each well was treated with 100 µL of serial dilutions (from 1 µM to 512 µM) of the test peptides. Then, the plate was incubated in the same shaking incubator for another 24 h. After being washed by PBS twice and fixed with methanol, the biofilm in each well was incubated with 100 µL of 0.1% crystal violet for 30 min, and the stained biofilm was dissolved in 100 µL of glacial acidic acid after drying. The solutions were transferred to a new microplate, and the absorbance of each well was measured using a microplate reader (EL808, Biolise BioTek, Winooski, VT, USA) set to 595 nm wavelength. The MBIC was the minimum concentration of the peptide showing no biofilm formation. The MBEC is the lowest concentration of the peptide capable of eradicating the mature biofilms, which had no biofilm in the well.

Assay [2] has as its system K. pneumoniae (ATCC 43816) biofilm. In kind it is cell-based, Klebsiella pneumoniae. As to conditions: ATCC 43816, 24 h. The procedure: as §1
In assay [3] the test system is MRSA (NCTC 12493) biofilm. In kind it is cell-based, methicillin-resistant Staphylococcus aureus. As to conditions: NCTC 12493, 24 h. The procedure: as §1
The next assay deals with MRSA (B042 V2E1 A). Description: microbe, parasite or virus in culture. In kind it is cell-based, methicillin-resistant Staphylococcus aureus. As to conditions: B042 V2E1 A; for MBC: 18 h; for MIC: 24 h. The protocol:
(§2) The antimicrobial activities of peptides were evaluated against the Gram-positive bacteria, S. aureus (ATCC 6538), methicillin-resistant Staphylococcus aureus (MRSA) (NCTC 12493), Enterococcus faecalis (E. faecalis) (NCTC 12697); the Gram-negative bacteria, E. coli (ATCC CRM 8739), Klebsiella pneumoniae (K. pneumoniae) (ATCC 43816), Pseudomonas aeruginosa (P. aeruginosa) (ATCC CRM 9027); and the yeast, Candida albicans (C. albicans) (ATCC CRM 10231). Clinical isolates of MRSA (B042 V2E1 A), E. coli (ATCC BAA-2340), K. pneumoniae (ATCC BAA-1705), and P. aeruginosa (B004 V2S2 B) were also used to determine their antimicrobial activities. The suspension of microorganisms in the logarithmic growth phase with a specific final density (Gram-negative and Gram-positive bacteria: 5 × 10^5 CFU/mL; yeast: 1 × 10^6 CFU/mL) was incubated with different peptide concentrations from 1 µM to 512 µM at 37 °C for 24 h. PBS was used as the negative control, and norfloxacin and amphotericin B were selected as the positive control for bacteria and yeast, respectively. Since the Norfloxacin had weak activities against P. aeruginosa (B004 V2S2 B) and K. pneumoniae (ATCC BAA 1705), gentamicin was used as the positive control for these two bacterial strains. The absorbance of each well was obtained using a microplate reader (EL808, Biolise BioTek, Winooski, VT, USA) set at 550 nm wavelength. The MIC value was the lowest concentration of a peptide that inhibits visible bacterial growth. Once the MIC values were determined, an aliquot from the bacterial culture exposed to the peptide at or above its MIC value was inoculated on a Mueller Hinton agar (MHA) and was incubated at 37 for 18 h. The MBC value was the lowest concentration of a peptide that kills 99.9% of bacteria.

For another assay, the system named is MRSA (NCTC 12493). Description: microbe, parasite or virus in culture. In kind it is cell-based, methicillin-resistant Staphylococcus aureus. As to conditions: for MBC: NCTC 12493, 18 h; for MIC: NCTC 12493, 24 h. The protocol: as §2
Another assay has as its system E. coli (ATCC CRM 8739). Description: microbe, parasite or virus in culture. In kind it is cell-based, Escherichia coli. As to conditions: for MBC: ATCC CRM 8739, 18 h; for MIC: ATCC CRM 8739, 24 h. The procedure:
as §2

A further assay concerns E. coli (ATCC BAA-2340). Description: microbe, parasite or virus in culture. In kind it is cell-based, Escherichia coli. As to conditions: for MBC: ATCC BAA-2340, 18 h; for MIC: ATCC BAA-2340, 24 h. The procedure:
as §2

In assay [4] the test system is C. albicans (ATCC CRM 10231). Description: organism not typed. In kind it is cell-based, Candida albicans. As to conditions: for MBC: ATCC CRM 10231, 18 h, read-out: MBC; for MIC: ATCC CRM 10231, 24 h, read-out: MIC. The procedure: as §2
Assay [5] concerns K. pneumoniae (ATCC 43816). In kind it is cell-based, Klebsiella pneumoniae. As to conditions: ATCC 43816, 24 h. The protocol:
as §2
According to the procedures in a previous article, the analysis of the sensitivity of the peptides was determined by measuring MIC values in the presence of different types of salts and 10% fetal bovine serum. MRSA (NCTC 12493) and K. pneumoniae (ATCC 43816) were selected as the subjects of these assays. Various salts at different concentrations, including 150 mM NaCl, 4.5 mM KCl, 6 μM NH4Cl, 1 mM MgCl2, […], […], and 10% serum (Gibco, Auckland, New Zealand), were added to the MHB medium for the examination of the MIC values which were determined as described in Section 2.7.

Values after ≈ are worked out from the molar mass of the structure shown. Like-named read-outs stand apart in the source and are kept apart here. Non-standard residues stand in square brackets, D forms with d. Residues, ends and D or L forms follow the SMILES beside them. No end group written: not given here.

For “FLPLIIGALSSKLPKIF-NH2 [Temporin-PKE-K12]”, the MBIC in [1] was more than 512 µM. Also, the MBIC in [2] is given as 512/>512 μM. This compound came in with an MBIC in assay [3] of 4 µM. Also, in the assay on MRSA (B042 V2E1 A), the MBC stood at 4 µM and the MIC came to 4 µM. In addition, in the assay with MRSA (NCTC 12493), the MBC came out at 4 µM and the MIC came to 4 µM. In the assay with E. coli (ATCC CRM 8739), this compound had an MBC of 8 µM and an MIC of 8 µM. In the assay on E. coli (ATCC BAA-2340), this compound showed an MBC of 16 µM and an MIC of 16 µM. Further, in [4], the MBC is given as more than 512 µM and the MIC is recorded as more than 512 µM. For the same compound, in assay [5], the “MIC against K. pneumoniae in the presence of 4 µM FeCl3” value (shortened to “MIC … of 4 µM FeCl3”) was 32 µM, the “MIC against K. pneumoniae in the presence of 6 µM NH4Cl” value (“MIC … of 6 µM NH4Cl” for short) amounted to 32 µM, the “MIC against K. pneumoniae in the presence of 8 µM ZnCl2” value (“MIC … of 8 µM ZnCl2” below) is 64 µM and the “MIC against K. pneumoniae in the presence of 1 mM MgCl2” value (shortened to “MIC … of 1 mM MgCl2”) was found to be 128 µM. For the same compound, in [5], the “MIC against K. pneumoniae in the presence of 2 mM CaCl2” value (“MIC … of 2 mM CaCl2” for short) was found to be 256 µM, the “MIC against K. pneumoniae in the presence of 4.5 mM KCl” value (“MIC … of 4.5 mM KCl” below) is 32 µM, the “MIC against K. pneumoniae in the presence of 150 mM NaCl” value (shortened to “MIC … of 150 mM NaCl”) amounted to 128 µM and the “MIC against K. pneumoniae in the presence of 10% FBS” value (from here on “MIC … of 10% FBS”) is 128 µM. In addition, the “MIC against K. pneumoniae, Negative” value in assay [5] turned out to be 32 µM.
Take FLPLIIGALSSLLPKIF-NH2 [Temporin-PKE]: the MBIC was more than 512 µM in assay [1], more than 512 µM in assay [2] and 4 µM in [3]. Also, the MBC was 8 µM in the assay on MRSA (B042 V2E1 A) (read-out: MBC); 2/2 μM against MRSA (NCTC 12493); more than 512 µM in the assay with E. coli (ATCC CRM 8739) (read-out: MBC); more than 512 µM with E. coli (ATCC BAA-2340) (read-out: MBC); more than 512 µM in assay [4]. Besides, the MIC in the assay with MRSA (B042 V2E1 A) (read-out: MIC) is reported as 4 µM; with MRSA (NCTC 12493) (read-out: MIC), 2 µM; in the assay on E. coli (ATCC CRM 8739) (read-out: MIC), more than 512 µM; with E. coli (ATCC BAA-2340) (read-out: MIC), more than 512 µM; in assay [4] it was more than 512 µM. Besides, in assay [5], the “MIC … of 4 µM FeCl3” value was more than 512 µM. Moreover, the “MIC … of 6 µM NH4Cl” value in assay [5] is more than 512 µM. The “MIC … of 8 µM ZnCl2” value in assay [5] was more than 512 µM. Also, the “MIC … of 1 mM MgCl2” value in assay [5] is more than 512 µM. Moreover, in assay [5], the “MIC … of 2 mM CaCl2” value is more than 512 µM. Further, the “MIC … of 4.5 mM KCl” value in assay [5] was more than 512 µM. Besides, the “MIC … of 150 mM NaCl” value in assay [5] is more than 512 µM. In [5], the “MIC … of 10% FBS” value was more than 512 µM. In [5], the “MIC against K. pneumoniae, Negative” value was more than 512 µM.
Compound `CC[C@@H](C)[C@@H](NC(=O)[C@H](CCCCN)NC(=O)[C@@H]1CCCN1C(=O)[C@H](CC(C)C)NC(=O)[C@H](CC(C)C)NC(=O)[C@H](CO)NC(=O)[C@H](CO)NC(=O)[C@H](CC(C)C)NC(=O)[C@H](C)NC(=O)CNC(=O)[C@@H](NC(=O)[C@@H](NC(=O)[C@H](CC(C)C)NC(=O)[C@@H]1CCCN1C(=O)[C@H](CC(C)C)NC(=O)[C@@H](N)Cc1ccccc1)[C@@H](C)CC)[C@@H](C)CC)C(=O)N[C@@H](Cc1ccccc1)C(N)=O` [Temporin-PKE-i] (H-FLPLIIGALSSLLPK[dI]F-NH2) registered an MBIC in assay [1] of more than 512 µM. The compound further had an MBIC in assay [2] of more than 512 µM. For the same compound, the MBIC in assay [3] is 2 µM. For the same compound, in the assay on MRSA (B042 V2E1 A), the MBC was found to be 4 µM (≈ 7.37 µg/mL) and the MIC stood at 4 µM (≈ 7.37 µg/mL). In the assay with MRSA (NCTC 12493), this compound displayed an MBC of 4 µM (≈ 7.37 µg/mL) and an MIC of 4 µM (≈ 7.37 µg/mL). The MBC with E. coli (ATCC CRM 8739) (read-out: MBC) is on record as more than 512 µM. The MIC in the assay with E. coli (ATCC CRM 8739) (read-out: MIC) is more than 512 µM. For the same compound, the MBC in the assay with E. coli (ATCC BAA-2340) (read-out: MBC) is listed as more than 512 µM. In addition, in the assay with E. coli (ATCC BAA-2340) (read-out: MIC), the MIC is more than 512 µM. Besides, in assay [4], the MBC is more than 512 µM and the MIC was more than 512 µM. Besides, in [5], the “MIC … of 4 µM FeCl3” value is more than 512 µM, the “MIC … of 6 µM NH4Cl” value is more than 512 µM, the “MIC … of 8 µM ZnCl2” value was more than 512 µM and the “MIC … of 1 mM MgCl2” value was more than 512 µM. Further, in assay [5], the “MIC … of 2 mM CaCl2” value is more than 512 µM, the “MIC … of 4.5 mM KCl” value was more than 512 µM, the “MIC … of 150 mM NaCl” value was more than 512 µM and the “MIC … of 10% FBS” value is more than 512 µM. The “MIC against K. pneumoniae, Negative” value in assay [5] was more than 512 µM.
